Source: patent US20060069132A1, “Azolecarboxamide herbicides” (priority 2004, published 2006)
Where two headings read alike, the source gives them in different places.

Tests used:
large crabgrass = assay: Test A pre-/postemergence herbicide test; type: in vivo, Digitaria sanguinalis; conditions: for pest or weed control at 125 g/ha / pest or weed control at 500 g/ha: Digitaria sanguinalis, 240 h, read-out: Crabgrass, Large plant response rating; for pest or weed control at 125 g/ha: 125 g ai/ha
How it was run: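 Both application timings were run together: directed soil spray over freshly planted seeds in sandy loam, and runoff spray onto 2–10 cm seedlings. Evaluation after ~10 days in greenhouse used a 0–100 visual scale versus untreated controls.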

blackgrass = assay: Test B postemergence herbicide test; type: in vivo, Alopecurus myosuroides
How it was run: (§1)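 Formulated test chemicals went onto postemergence plants measuring 2 to 18 cm, at one to four leaves. For the paddy assay, species had reached two leaves. Scoring took place 13–15 days later by eye, relative to untreated plants, using 0 for no effect up to 100 for full control.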

ducksalad = assay: Test B flooded paddy test; type: in vivo, Heteranthera limosa; conditions: scale 0 to 100 (0 no effect, 100 complete control); for Ducksalad plant response rating / pest or weed control at 1000 g/ha: 1000 g ai/ha
How it was run: as §1

rice [1] = assay: Test C flooded paddy test; type: in vivo, Oryza sativa
How it was run: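 Injury scored visually against controls on a 0 (no effect) to 100 (complete control) scale, 12 to 14 days after treatment in greenhouse. Flooded paddy plants treated at 2-leaf stage; postemergence plants at 1- to 4-leaf stage, 2 to 18 cm tall.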

rice [2] = assay: Test B pre-/postemergence herbicide test; type: in vivo, Oryza sativa; conditions: Oryza sativa, pre-emergence, 336 h, 0 = no effect, 100 = complete control; for plant injury at 125 g/ha: 125 g ai/ha, read-out: Rice plant response rating (0 to 100 scale)
How it was run: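 Herbicidal effect was judged by eye on a 0–100 scale after plants stood 13 to 15 days in the greenhouse following pre- or postemergence treatment with surfactant-containing formulations.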

common ragweed = assay: Test C pre-/postemergence herbicide test; type: in vivo, Ambrosia elatior; design: key to Plant response rating, Ragweed: 0 = no effect, 100 = complete control; conditions: preemergence; for Plant response rating (0 = no effect, 100 = complete control), Ragweed: 125 g ai/ha
Source text: (§2) Seeds of plant species selected from bermudagrass (Cynodon dactylon (L.) Pers.), Surinam grass (Urochloa decumbens (Staph) R. D. Webster, previously named Brachiaria decumbens Stapf), cocklebur (Xanthium strumarium L.), corn (Zea mays L.), large crabgrass (Digitaria sanguinalis (L.) Scop.), woolly cupgrass (Eriochloa villosa (Thunb.) Kunth), giant foxtail (Setaria faberi Herrm.), goosegrass (Eleusine indica (L.) Gaertn.), johnsongrass (Sorghum halepense (L.) Pers.), kochia (Kochia scoparia (L.) Schrad.), lambsquarters (Chenopodium album L.), morningglory (Ipomoea coccinea L.), eastern black nightshade (Solanum ptycanthum Dunal), yellow nutsedge (Cyperus esculentus L.), pigweed (Amaranthus retroflexus L.), common ragweed (Ambrosia elatior L.), soybean (Glycine max (L.) Merr.), common (oilseed) sunflower (Helianthus annuus L.) and velvetleaf (Abutilon theophrasti Medik.) were planted and treated preemergence with test chemicals formulated in a non-phytotoxic solvent mixture which included a surfactant.
(§3) At the same time, plants selected from these crop and weed species and also winter barley (Hordeum vulgare L.), blackgrass (Alopecurus myosuroides Huds.), canarygrass (Phalaris minor Retz.), chickweed (Stellaria media (L.) Vill.), downy bromegrass (Bromus tectorum L.), green foxtail (Setaria viridis (L.) Beauv.), Italian ryegrass (Lolium multiflorum Lam.), wheat (Triticum aestivum L.), wild oat (Avenafatua L.) and windgrass (Apera spica-venti (L.) Beauv.) were treated with postemergence applications of some of the test chemicals formulated in the same manner. Plants ranged in height from 2 to 18 cm (1- to 4-leaf stage) for postemergence treatments. Plant species in the flooded paddy test consisted of rice (Oryza sativa), smallflower umbrella sedge (Cyperus difformis L.), ducksalad (Heteranthera limosa (Sw.) Willd.) and barnyardgrass (Echinochloa crus-galli (L.) Beauv.) grown to the 2-leaf stage for testing. Treated plants and controls were maintained in a greenhouse for 12 to 14 days, after which time all species were compared to controls and visually evaluated. Plant response ratings, summarized in Table C, are based on a scale of 0 to 100 where 0 is no effect and 100 is complete control. A dash (-) response means no test result.

giant foxtail = assay: Test C pre-/postemergence herbicide test; type: in vivo, Setaria faberi; conditions: preemergence; for Plant response rating (0 = no effect, 100 = complete control), Foxtail, Giant: 125 g ai/ha
Source text: as §2, §3

johnsongrass = assay: Test C pre-/postemergence herbicide test; type: in vivo, Sorghum halepense; conditions: preemergence; for Plant response rating (0 = no effect, 100 = complete control), Johnsongrass: 125 g ai/ha
Source text: as §2, §3

cocklebur = assay: Test C pre-/postemergence herbicide test; type: in vivo, Xanthium strumarium; conditions: preemergence
Source text: as §2, §3

[3] = 125 g ai/ha, scale 0 to 100 (0 no effect, 100 complete control)
[4] = 250 g ai/ha, scale of 0 to 100, 0 is no effect, 100 is complete control
[5] = 500 g ai/ha, visual rating after 12 to 14 days, scale 0 to 100 (0 no effect, 100 complete control)
[6] = Alopecurus myosuroides, post-emergence, 336 h, postemergence, 125 g ai/ha, visual rating, scale 0 (no effect) to 100 (complete control), read-out: Blackgrass plant response rating
[7] = 125 g ai/ha, visual rating, scale 0 (no effect) to 100 (complete control), postemergence
[8] = postemergence, 500 g ai/ha, scale 0 to 100, 0 is no effect, 100 is complete control
[9] = 500 g ai/ha, scale 0 to 100 (0 no effect, 100 complete control), visual, 12 to 14 days

SMILES: C=Cn1nc(C(C)(C)C)cc1C(=O)Nc1cccc(C(C)=O)c1 [Compound 127]
- Crabgrass, Large plant response rating (large crabgrass; Postemergence, 500 g ai/ha, 0 to 100 scale, 0 no effect, 100 complete control): 15
- Plant response rating, Crabgrass, Large (large crabgrass; Postemergence, 2000 g ai/ha, 0 to 100 scale, 0 no effect, 100 complete control): 35
- Crabgrass, Large plant response rating (large crabgrass; Preemergence, 500 g ai/ha, visual rating, 0 to 100 scale (0 no effect, 100 complete control)): 75
- Crabgrass, Large plant response rating (large crabgrass; Preemergence, 2000 g ai/ha, visual rating, 0 to 100 scale (0 no effect, 100 complete control)): 85
- Blackgrass plant response rating (blackgrass; postemergence, 125 g ai/ha, visual rating, scale 0 (no effect) to 100 (complete control)): 10
- Blackgrass plant response rating (blackgrass; postemergence, 500 g ai/ha, visual rating, scale 0 (no effect) to 100 (complete control)): 10
- Ducksalad plant response rating (ducksalad; visual rating, 13 to 15 days): 90
- Rice plant response rating (rice [1]; 62 g ai/ha, scale 0 to 100 (0 no effect, 100 complete control)): 20
- Rice plant response rating (rice [1]; [3]): 25
- Rice plant response rating (rice [1]; [4]): 25
- Plant response rating, Rice (rice [1]; [5]): 25

SMILES: CCc1cn(C(C)(C)C)nc1C(=O)Nc1cccc(C(=O)N(CC)CC)c1 [Compound 168, N-[3-[(diethylamino)carbonyl]phenyl]-1-(1,1-dimethylethyl)-4-ethyl-1H-pyrazole-3-carboxamide]
- pest or weed control at 31 g/ha (blackgrass; Alopecurus myosuroides, post-emergence, 336 h, postemergence, 31 g ai/ha, scale 0 to 100, read-out: Blackgrass plant response rating): 0%
- pest or weed control at 125 g/ha (blackgrass; [6]): 10%
- pest or weed control at 1000 g/ha (ducksalad; Heteranthera limosa, 336 h, visual rating, 13 to 15 days, read-out: Ducksalad plant response rating): 70%
- plant injury at 125 g/ha (rice [2]): 0%

SMILES: CCn1nc(C(C)(C)C)c(F)c1C(=O)Nc1cc(C(=O)N(C)C)ccc1F [Compound 276, N-[5-[(dimethylamino)carbonyl]-2-fluorophenyl]-3-(1,1-dimethylethyl)-1-ethyl-4-fluoro-1H-pyrazole-5-carboxamide]
- pest or weed control at 125 g/ha (blackgrass; [6]): 30%
- pest or weed control at 500 g/ha (blackgrass; Alopecurus myosuroides, post-emergence, 336 h, postemergence, 500 g ai/ha, scale 0 to 100, 0 is no effect, 100 is complete control, read-out: Blackgrass plant response rating): 40%
- pest or weed control at 1000 g/ha (ducksalad; Heteranthera limosa, 336 h, read-out: Ducksalad plant response rating): 80%
- plant injury at 62 g/ha (rice [1]; Oryza sativa, 62 g ai/ha, scale 0 to 100, read-out: Rice plant response rating): 0%
- plant injury at 125 g/ha (rice [1]; Oryza sativa, 125 g ai/ha, scale 0 to 100 (0 no effect, 100 complete control), read-out: Rice plant response rating): 15%
- plant injury at 250 g/ha (rice [1]; Oryza sativa, 250 g ai/ha, scale of 0 to 100, 0 is no effect, 100 is complete control, read-out: Rice plant response rating): 50%
- plant injury at 500 g/ha (rice [1]; Oryza sativa, 500 g ai/ha, visual rating after 12 to 14 days, scale 0 to 100 (0 no effect, 100 complete control), read-out: Plant response rating, Rice): 70%
- plant injury at 125 g/ha (rice [2]): 50%
- plant injury at 500 g/ha (rice [2]; 500 g ai/ha, visual rating, read-out: Plant response rating, Rice): 80%

SMILES: CCNC(=O)c1ccc(F)c(NC(=O)c2c3c(nn2CC)C(C)(C)CC3)c1 [Compound 353]
- Blackgrass plant response rating (blackgrass; [7]): 10
- Blackgrass plant response rating (blackgrass; [8]): 40
- Ducksalad plant response rating (ducksalad): 80
- Rice plant response rating (rice [1]; 62 g ai/ha, scale 0 to 100): 0
- Rice plant response rating (rice [1]; [3]): 0
- Rice plant response rating (rice [1]; [4]): 20
- Plant response rating, Rice (rice [1]; [5]): 40

SMILES: CCc1nn(C(C)(C)C)nc1C(=O)Nc1cccc(C(=O)N(C)CC)c1 [Compound 384]
- Blackgrass plant response rating (blackgrass; [7]): 20
- Blackgrass plant response rating (blackgrass; [8]): 50
- Ducksalad plant response rating (ducksalad): 80
- Plant response rating, Ragweed (common ragweed; 62 g ai/ha, scale 0 to 100): 100
- Plant response rating (0 = no effect, 100 = complete control), Ragweed (common ragweed): 100
- Plant response rating, Ragweed (common ragweed; 250 g ai/ha, scale 0-100): 100
- Rice plant response rating (rice [1]; 62 g ai/ha, scale 0 to 100): 60
- Rice plant response rating (rice [1]; [3]): 65
- Rice plant response rating (rice [1]; [4]): 80
- Plant response rating, Rice (rice [1]; [5]): 80
- Plant response rating, Foxtail, Giant (giant foxtail; 62 g ai/ha, scale 0 to 100): 95
- Plant response rating (0 = no effect, 100 = complete control), Foxtail, Giant (giant foxtail): 100
- Plant response rating, Foxtail, Giant (giant foxtail; 250 g ai/ha, scale 0-100): 100
- Plant response rating, Johnsongrass (johnsongrass; 62 g ai/ha, scale 0 to 100): 100
- Plant response rating (0 = no effect, 100 = complete control), Johnsongrass (johnsongrass): 100
- Plant response rating, Johnsongrass (johnsongrass; 250 g ai/ha, scale 0-100): 100

SMILES: Cc1nn(C(C)(C)C)nc1C(=O)Nc1cccc(C(=O)N2CC=CC2)c1 [Compound 393]
- Blackgrass plant response rating (blackgrass; [7]): 20
- Blackgrass plant response rating (blackgrass; Postemergence, 500 g ai/ha, scale 0 (no effect) to 100 (complete control)): 40
- Ducksalad plant response rating (ducksalad): 90
- Plant response rating, Cocklebur (cocklebur; 62 g ai/ha, scale 0 to 100): 0
- Plant response rating (0 = no effect, 100 = complete control), Cocklebur (cocklebur; 125 g ai/ha): 100
- Plant response rating, Cocklebur (cocklebur; 250 g ai/ha, scale 0-100): 100
- Plant response rating, Cocklebur (cocklebur; [9]): 100
- Plant response rating, Ragweed (common ragweed; 62 g ai/ha, scale 0 to 100): 20
- Plant response rating (0 = no effect, 100 = complete control), Ragweed (common ragweed): 100
- Plant response rating, Ragweed (common ragweed; 250 g ai/ha, scale 0-100): 100
- Plant response rating, Ragweed (common ragweed; [9]): 100
- Rice plant response rating (rice [1]; 62 g ai/ha, scale 0 to 100): 45
- Rice plant response rating (rice [1]; [3]): 75
- Rice plant response rating (rice [1]; [4]): 80
- Plant response rating, Rice (rice [1]; [5]): 85
- Plant response rating, Foxtail, Giant (giant foxtail; 62 g ai/ha, scale 0 to 100): 70
- Plant response rating (0 = no effect, 100 = complete control), Foxtail, Giant (giant foxtail): 90
- Plant response rating, Foxtail, Giant (giant foxtail; 250 g ai/ha, scale 0-100): 95
- Plant response rating, Foxtail, Giant (giant foxtail; [9]): 100
- Plant response rating, Johnsongrass (johnsongrass; 62 g ai/ha, scale 0 to 100): 95
- Plant response rating (0 = no effect, 100 = complete control), Johnsongrass (johnsongrass): 100
- Plant response rating, Johnsongrass (johnsongrass; 250 g ai/ha, scale 0-100): 100
- Plant response rating, Johnsongrass (johnsongrass; [9]): 100

SMILES: CCNC(=O)c1cccc(NC(=O)c2nc(C(C)(C)C)nn2CC)c1 [Compound 446, 3-(1,1-dimethylethyl)-1-ethyl-N-[3-[(ethylamino)carbonyl]phenyl]-1H-1,2,4-triazole-5-carboxamide]
- pest or weed control at 125 g/ha (large crabgrass; post-emergence, Postemergence, 0 to 100 scale, 0 no effect, 100 complete control): 45%
- pest or weed control at 500 g/ha (large crabgrass; post-emergence, Postemergence, 500 g ai/ha, 0 to 100 scale, 0 no effect, 100 complete control): 65%
- pest or weed control at 125 g/ha (large crabgrass; pre-emergence, preemergence, visual injury, 0 to 100 scale (0 no effect, 100 complete control)): 10%
- pest or weed control at 500 g/ha (large crabgrass; pre-emergence, preemergence, 500 g ai/ha, visual injury, 0 to 100 scale (0 no effect, 100 complete control)): 40%
- pest or weed control at 125 g/ha (ducksalad; Heteranthera limosa, 336 h, 125 g ai/ha, read-out: Ducksalad plant response rating): 70%
- pest or weed control at 500 g/ha (ducksalad; Heteranthera limosa, 336 h, 500 g ai/ha, read-out: Ducksalad plant response rating): 80%
